In ChEMBL document CHEMBL5032530, “Discovery of Benzocyclic Sulfone Derivatives as Potent CXCR2 Antagonists for Cancer Immunotherapy” (J Med Chem, 2021):
Calls of active or inactive are those of the source. No cut-off for these calls is given here.

Experiments:
[1] = system: Panc02; assay: Antitumour activity against mouse Panc02 cells xenografted in mouse assessed as reduction in infiltration of granulocytic MDSCs into tumor tissue at 3 mg/kg, po bid measured after 15 days by flow cytometry analysis; type: functional, organism-based; settings: time 15.0 day
[2] = biological target: C-C chemokine receptor type 7 (Homo sapiens) (UniProt P32248); assay: Antagonist activity against CCR7 (unknown origin) assessed as inhibition of beta-arrestin 2 recruitment at 10 microM by beta arrestin assay relative to control; type: functional; parameters: scale not given: the % may be the effect or the level left
Chain of C-C chemokine receptor type 7 (Homo sapiens) (P32248 whole entry): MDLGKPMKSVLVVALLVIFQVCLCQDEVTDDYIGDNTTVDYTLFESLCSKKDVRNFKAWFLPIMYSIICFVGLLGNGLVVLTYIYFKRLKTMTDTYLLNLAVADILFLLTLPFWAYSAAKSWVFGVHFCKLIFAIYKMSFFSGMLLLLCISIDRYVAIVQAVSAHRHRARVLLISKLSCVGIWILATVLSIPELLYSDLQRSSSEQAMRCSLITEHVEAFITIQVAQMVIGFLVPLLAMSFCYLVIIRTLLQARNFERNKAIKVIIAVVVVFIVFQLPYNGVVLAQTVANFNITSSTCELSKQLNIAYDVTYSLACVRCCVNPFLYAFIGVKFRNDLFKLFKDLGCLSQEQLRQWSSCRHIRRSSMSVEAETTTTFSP

[3] = biological target: CX3C chemokine receptor 1 (Homo sapiens) (UniProt P49238); assay: Agonist activity against CX3CR1 (unknown origin) assessed as induction of beta-arrestin 2 recruitment at 10 microM by beta arrestin assay relative to control; type: functional
Chain of CX3C chemokine receptor 1 (Homo sapiens) (P49238 whole entry): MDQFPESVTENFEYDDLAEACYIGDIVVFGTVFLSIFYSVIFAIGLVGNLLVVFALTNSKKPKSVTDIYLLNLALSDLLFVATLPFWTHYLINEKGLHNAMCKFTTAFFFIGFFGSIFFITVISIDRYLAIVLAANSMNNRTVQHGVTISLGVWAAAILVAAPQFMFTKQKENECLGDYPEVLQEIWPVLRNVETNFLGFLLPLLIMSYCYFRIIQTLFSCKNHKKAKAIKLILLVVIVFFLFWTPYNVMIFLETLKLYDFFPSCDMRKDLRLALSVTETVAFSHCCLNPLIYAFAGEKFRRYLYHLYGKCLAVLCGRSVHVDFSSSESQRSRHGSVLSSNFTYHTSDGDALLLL

[4] = biological target: C-X-C chemokine receptor type 5 (Homo sapiens) (UniProt P32302); assay: Agonist activity against CXCR5 (unknown origin) assessed as induction of beta-arrestin 2 recruitment at 10 microM by beta arrestin assay relative to control; type: functional
Chain of C-X-C chemokine receptor type 5 (Homo sapiens) (P32302 whole entry): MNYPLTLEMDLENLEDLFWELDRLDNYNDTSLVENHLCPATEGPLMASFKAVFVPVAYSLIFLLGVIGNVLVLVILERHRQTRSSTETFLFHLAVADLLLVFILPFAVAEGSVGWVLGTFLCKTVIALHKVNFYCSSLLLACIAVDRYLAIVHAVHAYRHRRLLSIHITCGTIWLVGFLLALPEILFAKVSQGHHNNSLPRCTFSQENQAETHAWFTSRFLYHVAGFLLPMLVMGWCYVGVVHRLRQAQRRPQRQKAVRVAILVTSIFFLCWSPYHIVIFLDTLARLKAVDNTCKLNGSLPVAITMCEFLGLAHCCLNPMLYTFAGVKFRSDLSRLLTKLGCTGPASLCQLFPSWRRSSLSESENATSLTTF

[5] = Cmax in ICR mouse at 3 mg/kg, iv measured upto 48 hrs; type: ADME, organism-based; parameters: route intravenous, dose 3 mg/kg, time <=48; settings: in vivo
[6] = biological target: C-C chemokine receptor type 2 (Homo sapiens) (UniProt P41597); assay: Agonist activity against CCR2 (unknown origin) assessed as induction of beta-arrestin 2 recruitment at 10 microM by beta arrestin assay relative to control; type: functional
Chain of C-C chemokine receptor type 2 (Homo sapiens) (P41597 whole entry, looked up): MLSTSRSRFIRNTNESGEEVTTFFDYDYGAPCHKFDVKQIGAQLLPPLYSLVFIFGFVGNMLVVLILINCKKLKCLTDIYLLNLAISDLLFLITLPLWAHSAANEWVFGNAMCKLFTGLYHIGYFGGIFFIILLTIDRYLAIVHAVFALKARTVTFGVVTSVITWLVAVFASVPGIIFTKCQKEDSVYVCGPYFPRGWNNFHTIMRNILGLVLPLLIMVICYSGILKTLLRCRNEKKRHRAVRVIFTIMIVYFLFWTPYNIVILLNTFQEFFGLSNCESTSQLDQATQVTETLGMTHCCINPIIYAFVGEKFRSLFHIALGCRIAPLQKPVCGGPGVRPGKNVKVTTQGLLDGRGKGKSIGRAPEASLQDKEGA

[7] = biological target: C-X-C chemokine receptor type 3 (Homo sapiens) (UniProt P49682); assay: Agonist activity against CXCR3 (unknown origin) assessed as induction of beta-arrestin 2 recruitment at 10 microM by beta arrestin assay relative to control; type: functional
Chain of C-X-C chemokine receptor type 3 (Homo sapiens) (P49682 whole entry): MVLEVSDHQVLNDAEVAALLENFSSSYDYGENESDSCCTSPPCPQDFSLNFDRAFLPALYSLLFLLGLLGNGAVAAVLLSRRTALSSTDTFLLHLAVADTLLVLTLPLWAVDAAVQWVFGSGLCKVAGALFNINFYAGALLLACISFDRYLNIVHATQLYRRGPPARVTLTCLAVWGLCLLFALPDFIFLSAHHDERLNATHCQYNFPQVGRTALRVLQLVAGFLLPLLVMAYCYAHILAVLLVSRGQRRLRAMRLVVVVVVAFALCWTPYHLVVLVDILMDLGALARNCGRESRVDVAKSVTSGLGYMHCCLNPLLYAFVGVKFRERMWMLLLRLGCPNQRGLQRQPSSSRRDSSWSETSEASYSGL

[8] = system: Panc02; assay: Antitumour activity against mouse Panc02 cells xenografted in mouse assessed as reduction in infiltration of neutrophils into tumor tissue at 3 mg/kg, po bid measured after 15 days by flow cytometry analysis; type: functional, organism-based; settings: time 15.0 day
[9] = system: Panc02; assay: Antitumour activity against mouse Panc02 cells xenografted in mouse assessed as change in CD11b expressing immune cells infiltration into tumor tissue using LY6C antibody at 10 mg/kg, po bid measured after 15 days by flow cytometry analysis (reference value: 20.5%); type: functional; settings: time 15 day
[10] = biological target: C-C chemokine receptor type 4 (Homo sapiens) (UniProt P51679); assay: Antagonist activity against CCR4 (unknown origin) assessed as inhibition of beta-arrestin 2 recruitment at 10 microM by beta arrestin assay relative to control; type: functional; parameters: scale not given: the % may be the effect or the level left
Chain of C-C chemokine receptor type 4 (Homo sapiens) (P51679 whole entry): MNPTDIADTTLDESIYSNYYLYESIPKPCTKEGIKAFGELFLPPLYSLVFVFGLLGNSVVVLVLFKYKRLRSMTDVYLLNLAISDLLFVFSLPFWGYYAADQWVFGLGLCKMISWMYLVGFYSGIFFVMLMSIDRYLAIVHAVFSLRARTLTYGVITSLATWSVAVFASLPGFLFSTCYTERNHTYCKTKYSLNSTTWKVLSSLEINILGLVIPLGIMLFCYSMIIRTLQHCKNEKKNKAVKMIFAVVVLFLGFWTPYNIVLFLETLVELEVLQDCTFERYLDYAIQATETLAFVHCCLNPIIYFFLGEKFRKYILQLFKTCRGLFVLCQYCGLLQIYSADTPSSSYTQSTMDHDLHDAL

[11] = Cytotoxicity against human PBMC cells assessed as reduction in cell viability measured after 72 hrs by CCK8 assay; type: cell-based
[12] = biological target: CX3C chemokine receptor 1 (Homo sapiens) (UniProt P49238); assay: Antagonist activity against CX3CR1 (unknown origin) assessed as inhibition of beta-arrestin 2 recruitment at 10 microM by beta arrestin assay relative to control; type: functional; parameters: scale not given: the % may be the effect or the level left

- Activity [2]: 20%
- Activity [3]: < 10%
- Activity [4]: < 10%
- Cmax [5]: 873 ng/mL
- Activity [6]: < 10%
- Activity [7]: < 10%
- Activity [10]: 10%
- Activity [12]: < 10%
SMILES: Cc1c(F)cccc1NC(=O)Nc1ccc2c(c1O)S(=O)(=O)CCC2
- Activity [1]: Active
- Activity [8]: Active
- Activity [9]: 15.6%
- IC50 [11]: > 10 µM
